Assay results as given in patent US20200172529A1, “Chemical Compound, Pharmaceutical Composition Thereof, and Use and Application Thereof” (Beijing Hanmi Pharm. Co., Ltd., priority 2017, published 2020).

How the values were obtained:
Type in all cases: biochemical
JAK2 kinase = JAK2 kinase (Homo sapiens, UniProt O60674); assay: Inhibition assay of JAK2 kinase activity (ADP-Glo Kinase Assay)
Description: Inhibition assay of JAK2 kinase activity: the method in ADP-Glo™ Kinase Assay (Promega, V9102) was used to determine the inhibitory activity of the test compounds against JAK2 kinase.

TYK2 kinase = target: T1, TYK2 kinase (Homo sapiens, UniProt P29597); assay: Inhibition assay of TYK2 kinase activity (ADP-Glo Kinase Assay)
T1 construct: purchased Life Technologies PR8440C
T1 sequence (P29597 whole entry): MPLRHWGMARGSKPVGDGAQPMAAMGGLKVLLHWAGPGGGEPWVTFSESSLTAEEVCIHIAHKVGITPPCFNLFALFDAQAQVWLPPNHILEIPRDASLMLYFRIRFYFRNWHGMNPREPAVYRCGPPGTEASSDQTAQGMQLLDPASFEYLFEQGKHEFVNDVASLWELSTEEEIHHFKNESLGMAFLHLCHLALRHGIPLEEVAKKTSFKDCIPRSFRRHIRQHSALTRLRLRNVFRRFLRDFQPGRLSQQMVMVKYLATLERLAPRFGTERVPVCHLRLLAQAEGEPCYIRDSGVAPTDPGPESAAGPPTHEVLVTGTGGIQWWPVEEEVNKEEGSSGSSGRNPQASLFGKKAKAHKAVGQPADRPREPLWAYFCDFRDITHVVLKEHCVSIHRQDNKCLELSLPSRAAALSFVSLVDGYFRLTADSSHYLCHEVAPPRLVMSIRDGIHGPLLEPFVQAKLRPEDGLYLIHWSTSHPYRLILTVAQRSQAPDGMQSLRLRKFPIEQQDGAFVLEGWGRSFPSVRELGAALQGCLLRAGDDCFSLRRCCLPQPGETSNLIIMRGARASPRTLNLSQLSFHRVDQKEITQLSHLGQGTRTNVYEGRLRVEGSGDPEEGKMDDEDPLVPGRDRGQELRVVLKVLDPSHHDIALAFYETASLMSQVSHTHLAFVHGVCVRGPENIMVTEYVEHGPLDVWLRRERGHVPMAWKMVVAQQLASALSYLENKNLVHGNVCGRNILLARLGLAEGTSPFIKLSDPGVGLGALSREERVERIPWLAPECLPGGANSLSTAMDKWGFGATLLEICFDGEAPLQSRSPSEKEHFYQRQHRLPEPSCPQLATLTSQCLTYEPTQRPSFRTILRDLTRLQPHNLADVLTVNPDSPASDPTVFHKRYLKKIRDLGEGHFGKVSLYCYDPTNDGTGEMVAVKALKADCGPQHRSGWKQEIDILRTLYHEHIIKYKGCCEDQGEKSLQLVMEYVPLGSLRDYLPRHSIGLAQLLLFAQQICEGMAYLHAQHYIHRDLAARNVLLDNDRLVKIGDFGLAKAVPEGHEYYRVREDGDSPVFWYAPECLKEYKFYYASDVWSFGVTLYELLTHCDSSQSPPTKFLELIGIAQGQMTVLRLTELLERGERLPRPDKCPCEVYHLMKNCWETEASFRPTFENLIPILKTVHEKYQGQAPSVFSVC
How it was run: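 Enzyme at 0.8 ng/mL (2-fold final) in 40 mM Tris-HCl pH 7.5, 20 mM MgCl2, 0.1 mg/mL BSA, 1 mM DTT, preincubated 10 min with compound (6 points, 10-fold dilutions from 10 μM). ATP plus polyE4Y1 then added for 60 min at room temperature. ADP-Glo luminescence read and IC50 derived.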

SYK kinase = SYK kinase (Homo sapiens, UniProt P43405); assay: Inhibition assay of SYK kinase activity (ADP-Glo Kinase Assay)
Description: Inhibition assay of SYK kinase activity: the method in ADP-Glo™ Kinase Assay (Promega, V9102) was used to determine the inhibitory activity of the test compounds against SYK kinase.

JAK1 kinase = JAK1 kinase (Homo sapiens, UniProt P23458); assay: Inhibition assay of JAK1 kinase activity (ADP-Glo Kinase Assay)
Chain of JAK1 kinase (P23458 whole entry): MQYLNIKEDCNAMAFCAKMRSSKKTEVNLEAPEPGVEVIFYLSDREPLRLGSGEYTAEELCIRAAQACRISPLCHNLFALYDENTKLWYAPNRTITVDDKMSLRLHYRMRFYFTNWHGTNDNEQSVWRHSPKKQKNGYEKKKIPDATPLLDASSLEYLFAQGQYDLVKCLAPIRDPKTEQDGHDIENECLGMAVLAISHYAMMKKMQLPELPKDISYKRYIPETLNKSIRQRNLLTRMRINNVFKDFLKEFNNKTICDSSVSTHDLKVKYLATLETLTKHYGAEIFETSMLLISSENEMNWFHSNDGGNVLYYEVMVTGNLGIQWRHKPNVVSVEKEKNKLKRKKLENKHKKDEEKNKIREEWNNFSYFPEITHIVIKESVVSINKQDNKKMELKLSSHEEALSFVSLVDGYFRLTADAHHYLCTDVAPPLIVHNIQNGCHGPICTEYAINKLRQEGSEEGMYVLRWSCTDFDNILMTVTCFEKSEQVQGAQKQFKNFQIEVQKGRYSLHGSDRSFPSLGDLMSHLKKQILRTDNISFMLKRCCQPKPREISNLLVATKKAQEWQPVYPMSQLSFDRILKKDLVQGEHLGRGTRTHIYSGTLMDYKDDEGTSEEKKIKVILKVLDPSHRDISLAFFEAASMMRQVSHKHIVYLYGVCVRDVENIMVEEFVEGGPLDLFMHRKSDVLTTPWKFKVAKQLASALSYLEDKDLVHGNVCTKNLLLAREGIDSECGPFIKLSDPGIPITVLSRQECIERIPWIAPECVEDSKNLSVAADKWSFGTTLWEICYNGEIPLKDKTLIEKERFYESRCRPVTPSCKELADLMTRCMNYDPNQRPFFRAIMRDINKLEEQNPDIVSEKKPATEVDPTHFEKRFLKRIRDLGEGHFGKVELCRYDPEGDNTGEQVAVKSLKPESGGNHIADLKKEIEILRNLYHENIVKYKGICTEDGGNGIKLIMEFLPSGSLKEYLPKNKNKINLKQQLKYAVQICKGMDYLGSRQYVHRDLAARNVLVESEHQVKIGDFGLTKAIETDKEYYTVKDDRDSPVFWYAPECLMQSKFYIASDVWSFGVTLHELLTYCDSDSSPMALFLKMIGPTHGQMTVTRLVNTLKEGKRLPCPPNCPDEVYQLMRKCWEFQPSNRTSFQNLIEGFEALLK
Description: Inhibition assay of JAK1 kinase activity: the method in ADP-Glo™ Kinase Assay (Promega, V9102) was used to determine the inhibitory activity of the test compounds against JAK1 kinase.

JAK3 kinase = target: T2, JAK3 kinase (Homo sapiens, UniProt P52333); assay: Inhibition assay of JAK3 kinase activity (ADP-Glo Kinase Assay)
T2 sequence (P52333 1-1124): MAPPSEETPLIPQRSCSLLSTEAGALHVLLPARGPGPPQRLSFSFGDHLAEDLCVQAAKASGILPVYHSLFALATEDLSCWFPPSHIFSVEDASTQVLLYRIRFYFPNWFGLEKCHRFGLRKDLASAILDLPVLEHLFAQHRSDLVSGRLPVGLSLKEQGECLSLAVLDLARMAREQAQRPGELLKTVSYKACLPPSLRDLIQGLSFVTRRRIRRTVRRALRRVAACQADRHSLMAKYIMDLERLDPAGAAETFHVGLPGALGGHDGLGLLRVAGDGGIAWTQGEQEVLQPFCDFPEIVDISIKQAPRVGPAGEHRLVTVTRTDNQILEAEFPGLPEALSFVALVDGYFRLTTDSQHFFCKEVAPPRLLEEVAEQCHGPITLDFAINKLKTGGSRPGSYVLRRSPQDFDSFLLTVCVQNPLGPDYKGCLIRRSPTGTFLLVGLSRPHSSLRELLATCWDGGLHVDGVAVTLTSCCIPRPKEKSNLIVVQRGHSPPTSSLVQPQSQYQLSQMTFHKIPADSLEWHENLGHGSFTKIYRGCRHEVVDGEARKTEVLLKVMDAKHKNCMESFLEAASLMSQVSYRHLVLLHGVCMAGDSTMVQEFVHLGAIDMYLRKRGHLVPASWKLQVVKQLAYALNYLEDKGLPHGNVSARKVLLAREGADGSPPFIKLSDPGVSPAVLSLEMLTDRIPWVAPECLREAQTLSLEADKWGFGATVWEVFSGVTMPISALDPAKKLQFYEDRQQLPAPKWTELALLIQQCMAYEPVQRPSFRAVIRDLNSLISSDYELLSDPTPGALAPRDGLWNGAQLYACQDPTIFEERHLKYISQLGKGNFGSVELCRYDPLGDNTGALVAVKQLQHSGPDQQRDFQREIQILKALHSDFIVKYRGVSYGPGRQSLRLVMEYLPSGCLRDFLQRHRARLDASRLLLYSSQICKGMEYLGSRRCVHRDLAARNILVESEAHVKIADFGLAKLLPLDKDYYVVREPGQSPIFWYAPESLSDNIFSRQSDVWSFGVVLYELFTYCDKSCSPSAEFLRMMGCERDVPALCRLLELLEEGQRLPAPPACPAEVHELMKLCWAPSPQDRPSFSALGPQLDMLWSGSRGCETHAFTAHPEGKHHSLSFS
Description: Inhibition assay of JAK3 kinase activity: the method in ADP-Glo™ Kinase Assay (Promega, V9102) was used to determine the inhibitory activity of the test compounds against JAK3 kinase.

Chain of JAK2 kinase (O60674 whole entry): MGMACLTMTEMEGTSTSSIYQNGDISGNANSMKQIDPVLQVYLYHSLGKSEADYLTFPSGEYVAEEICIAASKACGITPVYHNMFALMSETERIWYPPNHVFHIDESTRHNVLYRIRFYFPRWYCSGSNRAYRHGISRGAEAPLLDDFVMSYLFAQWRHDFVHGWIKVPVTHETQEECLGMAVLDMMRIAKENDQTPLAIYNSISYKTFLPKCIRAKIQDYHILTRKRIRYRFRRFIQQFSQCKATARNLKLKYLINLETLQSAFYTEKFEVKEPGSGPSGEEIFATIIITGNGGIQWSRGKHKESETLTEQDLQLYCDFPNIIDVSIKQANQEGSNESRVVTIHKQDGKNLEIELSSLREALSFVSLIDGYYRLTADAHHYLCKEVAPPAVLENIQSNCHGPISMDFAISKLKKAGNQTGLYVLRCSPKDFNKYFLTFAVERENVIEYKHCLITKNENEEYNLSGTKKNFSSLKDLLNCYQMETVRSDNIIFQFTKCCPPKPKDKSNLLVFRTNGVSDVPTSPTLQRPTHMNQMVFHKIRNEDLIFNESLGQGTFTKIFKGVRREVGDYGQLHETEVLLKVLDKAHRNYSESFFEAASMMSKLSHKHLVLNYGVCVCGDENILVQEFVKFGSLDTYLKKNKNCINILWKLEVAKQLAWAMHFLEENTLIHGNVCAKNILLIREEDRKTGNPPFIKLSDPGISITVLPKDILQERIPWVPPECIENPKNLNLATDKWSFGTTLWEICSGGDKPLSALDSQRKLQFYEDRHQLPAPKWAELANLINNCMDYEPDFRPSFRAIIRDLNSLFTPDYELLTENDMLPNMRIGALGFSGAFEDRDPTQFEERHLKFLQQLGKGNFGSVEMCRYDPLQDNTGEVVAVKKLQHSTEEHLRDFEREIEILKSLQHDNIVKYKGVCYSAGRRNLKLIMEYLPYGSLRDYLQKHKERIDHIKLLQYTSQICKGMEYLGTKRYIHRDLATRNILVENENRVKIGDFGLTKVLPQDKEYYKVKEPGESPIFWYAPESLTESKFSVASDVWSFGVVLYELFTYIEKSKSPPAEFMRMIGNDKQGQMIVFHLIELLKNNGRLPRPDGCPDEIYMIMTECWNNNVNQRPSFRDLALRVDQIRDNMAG

Row | Compound | IC50 (JAK2 kinase) [nM] | IC50 (TYK2 kinase) [nM] | IC50 (SYK kinase) [nM] | IC50 (JAK1 kinase) [nM] | IC50 (JAK3 kinase) [nM]
1 | COC1CNc2cc(Nc3ncc(C(N)=O)c(NC4CC4)n3)ccc2OC1 (stereo not drawn) [Example 24, 4-(cyclopropylamino)-2-((3-methoxy-2,3,4,5-tetrahydro-benzo[b][1,4]oxazepin-7-yl)amino)pyrimidin-5-carboxamide] | 10 to 100 | < 10 | 10 to 100 | 10 to 100 | 10 to 100
2 | NC(=O)c1cnc(Nc2ccc3c(c2)NC[C@@H](O)CO3)nc1NC1CC1 [Example 25, (R)-4-(cyclopropylamino)-2-((3-hydroxy-2,3,4,5-tetrahydro-benzo[b][1,4]oxazepin-7-yl)amino)pyrimidin-5-carboxamide] | < 10 | < 10 | 10 to 100 | 10 to 100 | < 10
3 | NC(=O)c1cnc(Nc2ccc3c(c2)NC[C@H](O)CO3)nc1NCC1CC1 [Example 44, 4-((cyclopropylmethyl)amino)-2-(((S)-2,3,4,5-tetrahydro-3-hydroxybenzo[b][1,4]oxazepin-7-yl)amino)pyrimidin-5-carboxamide] | < 10 | < 10 | 10 to 100 | < 10 | < 10
4 | NC(=O)c1cnc(Nc2ccc3c(c2)NC[C@H](O)CO3)nc1NC1CC1F (stereo partly drawn) [Example 57, 4-((2-fluorocyclopropyl)amino)-2-(((S)-2,3,4,5-tetrahydro-3-hydroxybenzo[b][1,4]oxazepin-7-yl)amino)pyrimidin-5-carboxamide] | 10 to 100 | < 10 | 10 to 100 | < 10 | 10 to 100
5 | C=CCNc1nc(Nc2ccc3c(c2)NC[C@H](O)CO3)ncc1C(N)=O [Example 60, 4-(allylamino)-2-(((S)-2,3,4,5-tetrahydro-3-hydroxybenzo[b][1,4]oxazepin-7-yl)amino)pyrimidin-5-carboxamide] | 10 to 100 | < 10 | 10 to 100 | < 10 | 10 to 100
6 | C#CCCNc1nc(Nc2ccc3c(c2)NC[C@H](O)CO3)ncc1C(N)=O [Example 66, 4-(but-3-yn-1-ylamino)-2-(((S)-2,3,4,5-tetrahydro-3-hydroxybenzo[b][1,4]oxazepin-7-yl)amino)pyrimidin-5-carboxamide] | 10 to 100 | < 10 | 10 to 100 | < 10 | 10 to 100
7 | CC1(Nc2nc(Nc3ccc4c(c3)NC[C@H](O)CO4)ncc2C(N)=O)CC1 [Example 68, 4-((1-methylcyclopropyl)amino)-2-(((S)-2,3,4,5-tetrahydro-3-hydroxybenzo[b][1,4]oxazepin-7-yl)amino)pyrimidin-5-carboxamide] | < 10 | < 10 | 10 to 100 | < 10 | 10 to 100
8 | CCCNc1nc(Nc2ccc3c(c2)NC[C@H](O)CO3)ncc1C(N)=O [Example 69, 4-(propylamino)-2-(((S)-2,3,4,5-tetrahydro-3-hydroxybenzo[b][1,4]oxazepin-7-yl)amino)pyrimidin-5-carboxamide] | 10 to 100 | < 10 | 10 to 100 | < 10 | 10 to 100
9 | C#CCCCNc1nc(Nc2ccc3c(c2)NC[C@H](O)CO3)ncc1C(N)=O [Example 72, 4-(pent-4-yn-1-ylamino)-2-(((S)-2,3,4,5-tetrahydro-3-hydroxybenzo[b][1,4]oxazepin-7-yl)amino)pyrimidin-5-carboxamide] | < 10 | < 10 | 10 to 100 | < 10 | < 10
10 | C=CCCNc1nc(Nc2ccc3c(c2)NC[C@H](O)CO3)ncc1C(N)=O [Example 76, 4-(but-3-enylamino)-2-(((S)-2,3,4,5-tetrahydro-3-hydroxybenzo[b][1,4]oxazepin-7-yl)amino)pyrimidin-5-carboxamide] | < 10 | 10 to 100 | 10 to 100 | < 10 | < 10
11 | COCCO[C@H]1CNc2cc(Nc3ncc(C(N)=O)c(NC4CC4)n3)ccc2OC1 [Example 78, 4-(cyclopropylamino)-2-(((S)-2,3,4,5-tetrahydro-3-methoxyethoxybenzo[b][1,4]oxazepin-7-yl)amino)pyrimidin-5-carboxamide] | 10 to 100 | < 10 | 10 to 100 | < 10 | 10 to 100
12 | CCO[C@H]1CNc2cc(Nc3ncc(C(N)=O)c(NC4CC4)n3)ccc2OC1 [Example 79, 4-(cyclopropylamino)-2-(((S)-2,3,4,5-tetrahydro-3-ethoxybenzo[b][1,4]oxazepin-7-yl)amino)pyrimidin-5-carboxamide] | 10 to 100 | < 10 | 10 to 100 | < 10 | 10 to 100
13 | CO[C@@H]1CNc2cc(Nc3ncc(C(N)=O)c(NC4CC4)n3)ccc2OC1 [Example 80, 4-(cyclopropylamino)-2-(((R)-2,3,4,5-tetrahydro-3-methoxybenzo[b][1,4]oxazepin-7-yl)amino)pyrimidin-5-carboxamide] | < 10 | < 10 | 10 to 100 | 10 to 100 | < 10
14 | COCCO[C@@H]1CNc2cc(Nc3ncc(C(N)=O)c(NC4CC4)n3)ccc2OC1 [Example 86, 4-(cyclopropylamino)-2-(((R)-2,3,4,5-tetrahydro-3-methoxyethoxybenzo[b][1,4]oxazepin-7-yl)amino)pyrimidin-5-carboxamide] | < 10 | < 10 | 10 to 100 | 10 to 100 | 10 to 100
15 | [2H]C([2H])([2H])O[C@H]1CNc2cc(Nc3ncc(C(N)=O)c(NC4CC4)n3)ccc2OC1 [Example 87, 4-(cyclopropylamino)-2-(((S)-2,3,4,5-tetrahydro-3-(trideuteromethoxy)benzo[b][1,4]oxazepin-7-yl)amino)pyrimidin-5-carboxamide] | < 10 | < 10 | 10 to 100 | < 10 | 10 to 100
16 | COCCOCCO[C@H]1CNc2cc(Nc3ncc(C(N)=O)c(NC4CC4)n3)ccc2OC1 [Example 89, 4-(cyclopropylamino)-2-(((S)-2,3,4,5-tetrahydro-3-(2-(2-methoxyethoxy)ethoxy)benzo[b][1,4]oxazepin-7-yl)amino)pyrimidin-5-carboxamide] | 10 to 100 | < 10 | 10 to 100 | < 10 | 10 to 100
17 | CCOC(=O)CO[C@H]1CNc2cc(Nc3ncc(C(N)=O)c(NC4CC4)n3)ccc2OC1 [Example 91, 4-(cyclopropylamino)-2-(((S)-2,3,4,5-tetrahydro-3-ethoxycarbonylmethoxybenzo[b][1,4]oxazepin-7-yl)amino)pyrimidin-5-carboxamide] | 10 to 100 | < 10 | 10 to 100 | < 10 | 10 to 100
18 | NC(=O)c1cnc(Nc2ccc3c(c2)NC[C@H](OCCO)CO3)nc1NC1CC1 [Example 92, 4-(cyclopropylamino)-2-(((S)-2,3,4,5-tetrahydro-3-(2-hydroxyethoxy)benzo[b][1,4]oxazepin-7-yl)amino)pyrimidin-5-carboxamide] | < 10 | < 10 | 10 to 100 | < 10 | < 10
